Each structure is given as a SMILES string.

For the first assay, the target named is T1, Human Testicular 17α-Hydroxylase (Homo sapiens, UniProt P05093).
T1 construct: incubating human testicular microsomes; from tissue; host or cells: human testis, microsomes
T1 sequence (P05093 1-508): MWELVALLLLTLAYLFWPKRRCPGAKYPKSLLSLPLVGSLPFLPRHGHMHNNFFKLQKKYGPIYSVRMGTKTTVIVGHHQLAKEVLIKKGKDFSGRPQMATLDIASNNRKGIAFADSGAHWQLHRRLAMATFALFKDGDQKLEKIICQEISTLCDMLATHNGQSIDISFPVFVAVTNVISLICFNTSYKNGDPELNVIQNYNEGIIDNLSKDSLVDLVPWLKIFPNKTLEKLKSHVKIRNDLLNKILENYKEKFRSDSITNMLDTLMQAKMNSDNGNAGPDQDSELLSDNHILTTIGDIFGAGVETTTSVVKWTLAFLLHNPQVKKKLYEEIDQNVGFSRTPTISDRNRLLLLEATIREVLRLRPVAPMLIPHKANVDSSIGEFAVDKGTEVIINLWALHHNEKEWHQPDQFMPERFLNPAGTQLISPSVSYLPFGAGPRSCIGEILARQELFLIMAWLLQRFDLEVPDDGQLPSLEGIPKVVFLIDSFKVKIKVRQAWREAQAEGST
The experiment in a line: Inhibition of human testicular 17α-hydroxylase (pregnenolone substrate, testicular microsomes). The note with it: read-out: IC50 17α-OHase. The assay is classed as biochemical. The procedure: (§1) The conversion of radiolabeled pregnenolone to 17α-hydroxypregnenolone and DHEA by 17α-hydroxylase/C17,20 -lyase was measured by incubating human testicular microsomes with different concentration of test compounds. Reverse phase HPLC was used to separate and accurately quantify the amount of substrate and metabolites. The 17α-hydroxylase and C17,20 -lyase activities were calculated separately. The activity of 17α-hydroxylase was calculated from the conversion of pregnenolone to 17α-hydroxypregnenolone and DHEA and the activity of C17,20 -lyase was based on the conversion of pregnenolone to DHEA. Although 17α-hydroxypregnenolone is the substrate converted to DHEA by C17,20 -lyase, it has been reported that this 17α-hydroxy intermediate is not released from the enzyme binding site during conversion (Nakajin et al., 1981a,b). Also, there are species differences in substrate requirements. Pregnenolone is the natural substrate rather than progesterone for human testicular 17α-hydroxylase and C17,20 -lyase. Therefore, pregnenolone was used as substrate for measuring the activity of this enzyme complex.
As for `CC(=O)O[C@H]1CC[C@@]2(C)C(=CC[C@@H]3[C@@H]2CC[C@]2(C)C(C(C)=O)=CC[C@@H]32)C1` [Compound I-37], the IC50 (usually the midpoint of a concentration-inhibition curve) was found to be 1890 nM.

For another assay, the target named is T2, Human Testicular C17,20-lyase (Homo sapiens, UniProt P05093).
T2 construct: incubating human testicular microsomes; from tissue; host or cells: human testis, microsomes
T2 sequence (P05093 1-508): T1 sequence (P05093 1-508)
The assay is described as follows: Inhibition of human testicular C17,20-lyase (pregnenolone substrate, testicular microsomes). The assay is classed as biochemical. The note with it: read-out: IC50 C17,20 lyase. The procedure: as §1
Turning to `CC(=O)O[C@H]1CC[C@@]2(C)C(=CC[C@@H]3[C@@H]2CC[C@]2(C)C(C(C)=O)=CC[C@@H]32)C1` [Compound I-37], the IC50 stood at 1710 nM.

Another assay deals with T3, human 17α-hydroxylase/C17,20-lyase (Homo sapiens, UniProt P05093).
T3 construct: incubating human testicular microsomes; from tissue; host or cells: human testis, microsomes
T3 sequence (P05093 1-508): T1 sequence (P05093 1-508)
The experiment in a line: Inhibition of human testicular 17α-hydroxylase/C17,20-lyase (enzyme complex as a whole). The assay is classed as biochemical. The note with it: NI = no inhibition. The procedure:
as §1
Turning to `CC(C#N)=C1CC[C@H]2[C@@H]3CCC4=CC(=O)CC[C@]4(C)[C@H]3CC[C@]12C` [Compound I-26], the “inhibition of 17α-hydroxylase/C17,20-lyase (in words)” value was “did not contribute to inhibition”.
The same measure, in the same setting: to `CC(=NN(C)C)C1=CC[C@H]2[C@@H]3CC=C4C[C@@H](O)CC[C@]4(C)[C@H]3CC[C@]12C` [Compound I-14] belongs “devoid of inhibitory activity”.
Still for that read-out and setting: with `CC(=O)O[C@H]1CC[C@@]2(C)C(=CC[C@@H]3[C@@H]2CC[C@]2(C)C(C(C)=O)=CC[C@@H]32)C1` [Compound I-37] the entry was “less activity than the 3-hydroxy compound”.
For `C[C@H](C=NN(C)C)[C@H]1CC[C@H]2[C@@H]3CCC4=CC(=O)CC[C@]4(C)[C@H]3CC[C@]12C` [Compound I-15], the “inhibition of 17α-hydroxylase/C17,20-lyase (in words)” value is reported as “devoid of inhibitory activity”.
The same measure, in the same setting: with `CC(=NN)[C@H]1CC[C@H]2[C@@H]3CC=C4C[C@@H](O)CC[C@]4(C)[C@H]3CC[C@]12C` [Compound I-12] the entry was “poor inhibition”.
The same measure, in the same setting: with `CC(=NO)[C@H]1CC[C@H]2[C@@H]3CC=C4C[C@@H](O)CC[C@]4(C)[C@H]3CC[C@]12C` [Compound I-1] the entry was “potent inhibition”; with `C[C@H](O)C1=CC[C@H]2[C@@H]3CC=C4C[C@@H](O)CC[C@]4(C)[C@H]3CC[C@]12C` [Compound L-9], “less active”.

For a further assay, the target named is T4, Human Prostatic 5α-Reductase (Homo sapiens, UniProt P31213).
T4 sequence (P31213 1-254): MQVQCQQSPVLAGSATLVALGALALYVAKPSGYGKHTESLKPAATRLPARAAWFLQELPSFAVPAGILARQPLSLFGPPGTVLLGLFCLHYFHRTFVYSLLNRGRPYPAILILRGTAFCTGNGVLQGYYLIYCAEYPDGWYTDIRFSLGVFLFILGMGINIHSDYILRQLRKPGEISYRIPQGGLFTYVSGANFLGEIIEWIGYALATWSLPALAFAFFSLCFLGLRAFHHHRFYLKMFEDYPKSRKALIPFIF
The assay is described as follows: Inhibition of human prostatic 5α-reductase (prostatic microsomes, [3H]testosterone). The note with it: read-out: % Inhibition of 5α-reductase, [I] 10 nM.
As to `CC(C#N)=C1CC[C@H]2[C@@H]3CCC4=CC(=O)CC[C@]4(C)[C@H]3CC[C@]12C` [Compound I-26], the inhibition (usually the drop in the measured response relative to a control, in per cent) at 0.01 µM amounted to 5.21%.
As to `C[C@H](C#N)[C@H]1CC[C@H]2[C@@H]3CCC4=CC(=O)CC[C@]4(C)[C@H]3CC[C@]12C` [Compound I-32], the inhibition at 0.01 µM is 21%.
Take `C[C@H](C=NN(C)C)[C@H]1CC[C@H]2[C@@H]3CCC4=CC(=O)CC[C@]4(C)[C@H]3CC[C@]12C` [Compound I-15]: the inhibition at 0.01 µM amounted to 16.4%.
Same read-out and setting: with `C[C@H](O)C1=CC[C@H]2[C@@H]3CC=C4C[C@@H](O)CC[C@]4(C)[C@H]3CC[C@]12C` [Compound L-9] the figure was 33.2%.

Still in this assay, the particulars now being: read-out: % Inhibition of 5α-reductase, [I] 100 nM.
As for `CO[C@@H]1[C@]23CC[C@@H]4[C@H](CC[C@]5(C)C(=O)CC[C@@H]45)[C@]12CCC(=O)[C@H]3C` [Compound L-23, 4α-methyl-19-(S)-methoxy-5,19β-cycloandrost-3,17-dione], the inhibition at 0.1 µM was 0%.
Still for that read-out and setting: to `CC(C#N)=C1CC[C@H]2[C@@H]3CCC4=CC(=O)CC[C@]4(C)[C@H]3CC[C@]12C` [Compound I-26] belongs 71.8%; to `C[C@H](C#N)[C@H]1CC[C@H]2[C@@H]3CCC4=CC(=O)CC[C@]4(C)[C@H]3CC[C@]12C` [Compound I-32], 79.2%; to `C[C@]12CC[C@H]3[C@@H](CC[C@]45CC(=O)CC[C@]34[C@H]5O)[C@@H]1CC[C@@H]2O` [Compound L-19, 17β,19(S)-dihydroxy 5,19β-cycloandrost-3-one], 8.7%.
Still for that read-out and setting: to `C=C1CC2C3CCC(OC(C)=O)C3(C)CCC2C2(C)CCC(=O)CC12` [Compound L-14, 17β-Acetoxy-6-methylene-5α-androst-3-one] belongs 5.77%; to `C[C@H](C=NN(C)C)[C@H]1CC[C@H]2[C@@H]3CCC4=CC(=O)CC[C@]4(C)[C@H]3CC[C@]12C` [Compound I-15], 74.9%.
Same read-out and setting: with `C[C@]12CC[C@H]3[C@@H](CCC4=CC(=O)CC[C@@]43CBr)[C@@H]1CCC2=O` [Compound L-24, 19-Bromo-androst-4-ene-3,17-dione] the figure was 12.3%; with `C[C@]12CC[C@H]3[C@@H](CC[C@]45CC(=O)CC[C@]34[C@@H]5O)[C@@H]1CCC2=O` [Compound L-20, 19(R)-Hydroxy-5,19β-cyclo-androst-3,17-dione], 5.89%.

Still in this assay, the particulars now being: read-out: % Inhibition of 5α-reductase, [I] 400 nM.
Take `CO[C@@H]1[C@]23CC[C@@H]4[C@H](CC[C@]5(C)C(=O)CC[C@@H]45)[C@]12CCC(=O)[C@H]3C` [Compound L-23, 4α-methyl-19-(S)-methoxy-5,19β-cycloandrost-3,17-dione]: the inhibition at 0.4 µM amounted to 16.1%.
Still for that read-out and setting: to `C[C@]12CC[C@H]3[C@@H](CC[C@]45CC(=O)CC[C@]34[C@H]5O)[C@@H]1CC[C@@H]2O` [Compound L-19, 17β,19(S)-dihydroxy 5,19β-cycloandrost-3-one] belongs 14.8%; to `C=C1CC2C3CCC(OC(C)=O)C3(C)CCC2C2(C)CCC(=O)CC12` [Compound L-14, 17β-Acetoxy-6-methylene-5α-androst-3-one], 11.4%.
As for `C[C@]12CC[C@H]3[C@@H](CCC4=CC(=O)CC[C@@]43CBr)[C@@H]1CCC2=O` [Compound L-24, 19-Bromo-androst-4-ene-3,17-dione], the inhibition at 0.4 µM turned out to be 52.7%.
Turning to `C[C@]12CC[C@H]3[C@@H](CC[C@]45CC(=O)CC[C@]34[C@@H]5O)[C@@H]1CCC2=O` [Compound L-20, 19(R)-Hydroxy-5,19β-cyclo-androst-3,17-dione], the inhibition at 0.4 µM worked out at 12.2%.
